# In patent US10544185B2 (Suzhou Zelgen Biopharmaceuticals Co., Ltd., priority 2015, dated 2020):
# Molecular target: T1, farnesoid X receptor (FXR) (Homo sapiens, UniProt Q96RI1)
# T1 sequence (Q96RI1 1-486): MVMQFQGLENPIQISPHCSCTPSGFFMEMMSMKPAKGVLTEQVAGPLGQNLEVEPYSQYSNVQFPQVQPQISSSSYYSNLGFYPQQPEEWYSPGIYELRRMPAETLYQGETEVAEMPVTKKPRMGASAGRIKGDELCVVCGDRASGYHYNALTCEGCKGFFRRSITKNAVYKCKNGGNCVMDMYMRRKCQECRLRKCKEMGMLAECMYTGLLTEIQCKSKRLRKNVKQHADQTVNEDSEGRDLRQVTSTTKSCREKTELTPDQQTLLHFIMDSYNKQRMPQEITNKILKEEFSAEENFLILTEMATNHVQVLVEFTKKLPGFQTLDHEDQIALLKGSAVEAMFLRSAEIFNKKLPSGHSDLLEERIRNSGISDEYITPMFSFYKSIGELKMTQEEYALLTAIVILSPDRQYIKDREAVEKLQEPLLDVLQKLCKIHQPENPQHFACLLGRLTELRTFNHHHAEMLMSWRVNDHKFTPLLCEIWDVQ
# Assay: Recruitment Coactivator Assay (AlphaScreen) for FXR activation
# Assay type: biochemical
# Details: read-out: activating activity (EC50) for FXR
# Method: The farnesoid X receptor (FXR) activation of the compounds of the present invention is determined by Recruitment Coactivator Assay, i.e. AlphaScreen. Specific in vitro pharmacodynamic evaluation experimental program has referred to the literature J Pharmacol Exp Ther 350:56-68, July 2014.
substance,measurement,value
"3α, 7[…]-Dihydroxy-6α-(Ethyl-d4)-5β-Cholan-24-Acid [Example 7]",EC50,< 0.2 µM
